The text below walks through data of patent publication US10918741B2, “PSMA-targeting imaging agents” (THE CLEVELAND CLINIC FOUNDATION, priority 2014, dated 2021).

In data set [1] the target is T1, PSMA (Homo sapiens, UniProt Q04609). Put plainly: Competitive binding assay. The arrangement: endogenous in cells; host or cells: LNCaP (endogenous PSMA, from ATCC) or PC3-PIP (retrovirally transformed PSMA-positive PC3, from Dr. Michel Sadelain). The method, then:
The prostate cancer cell line LNCaP (PSMA-positive) was obtained from American Type Culture Collection (Manassas, Va.). Retrovirally transformed PSMA positive PC3-PIP cells and transfection controlled PC3-flu cells were obtained from Dr. […] (Laboratory of Gene Transfer and Gene Expression, Gene Transfer and Somatic Cell Engineering Facility, Memorial-Sloan Kettering Cancer Center, New York, N.Y.). Cells were grown at 37° C. and 5% CO2 under a humidified atmosphere. […] The mixture was centrifuged at 3,000 g for 5 min at 4° C., then washed three times with 500 μL of cold PBS. […] The concentration required to inhibit 50% of binding was determined (IC50) by Graph Pad Prism 3.0.

The nature of data set [2]: Biodistribution study of [Al^18F]5. It is filed as in vivo, mice. To be noted: male, NSG, mouse, total radioactivity. The method, then:
(§1) Positron emission tomography and biodistribution study of [Al^18F]5: Male NSG mice at least 6 weeks old were subcutaneously implanted with two human PC3-PIP (PSMA+) tumor xenographs. When one of the tumors reached 0.5 mL in volume, imaging and biodistribution studies were conducted. For imaging, 0.3-0.4 mCi of [Al^18F]5 was injected via the tail vein. The mouse was anesthetized with isoflurane and imaged at 1 hour post injection on a clinical PET/CT scanner (Biograph mCT, Siemens Molecular Imaging, Hoffman Estates, Ill.) using super-resolution sampling and iterative deconvolution processing. For the biodistribution study without imaging, 50-150 μCi of [Al^18F]5 was injected in PC3-PIP tumor bearing mice which were sacrificed at one and two hours post injection for biodistribution measurements.

The subject of data set [3] is PC3-PIP (PSMA+) tumor xenographs. Put plainly: Biodistribution study of [Al^18F]5. Format: in vivo, mice. To be noted: for Biodistribution: Tumor (PC3PIP): preliminary. The method, then:
as §1

Data set [4] deals with T1, PSMA. Conditions: cited from earlier work; for (per patient) lesion detection rate: 37 patients with prostate cancer; for non-PSMA related background in humans, in words / lesion detection in humans, in words: early human trials.
For data set [5] the following is noted: published values, cited from earlier work; for Blood pool activity: 2 hours post injection; for liver background: at 2 hours.
Where [6] appears, read: blood, read-out: Biodistribution: Blood.
The mark [7] stands for this setting: liver, read-out: Biodistribution: Liver.

Structures are written as SMILES. pIC50: −log10 of the molar value. Entries after “also recorded” stand apart in the source; their conditions may differ. Read-outs that look alike come from different tables or passages of the source. *1 amine or outer side, *2 acyl side, *3 side chain or, on linkers, in order; H or OH if unused. Where a SMILES comes first, the peptide text is derived from it. [ ]: non-standard residue; d: D form. γGlu = O=C(O)[C@H](CCC(=O)[*:2])N[*:1]; X1 = O=C(C1CCC(CN[*:1])CC1)[*:2]; CO = O=C([*:1])[*:2]; Ahx = NCCCCCC(=O)O

T1 sequence (Q04609 whole entry): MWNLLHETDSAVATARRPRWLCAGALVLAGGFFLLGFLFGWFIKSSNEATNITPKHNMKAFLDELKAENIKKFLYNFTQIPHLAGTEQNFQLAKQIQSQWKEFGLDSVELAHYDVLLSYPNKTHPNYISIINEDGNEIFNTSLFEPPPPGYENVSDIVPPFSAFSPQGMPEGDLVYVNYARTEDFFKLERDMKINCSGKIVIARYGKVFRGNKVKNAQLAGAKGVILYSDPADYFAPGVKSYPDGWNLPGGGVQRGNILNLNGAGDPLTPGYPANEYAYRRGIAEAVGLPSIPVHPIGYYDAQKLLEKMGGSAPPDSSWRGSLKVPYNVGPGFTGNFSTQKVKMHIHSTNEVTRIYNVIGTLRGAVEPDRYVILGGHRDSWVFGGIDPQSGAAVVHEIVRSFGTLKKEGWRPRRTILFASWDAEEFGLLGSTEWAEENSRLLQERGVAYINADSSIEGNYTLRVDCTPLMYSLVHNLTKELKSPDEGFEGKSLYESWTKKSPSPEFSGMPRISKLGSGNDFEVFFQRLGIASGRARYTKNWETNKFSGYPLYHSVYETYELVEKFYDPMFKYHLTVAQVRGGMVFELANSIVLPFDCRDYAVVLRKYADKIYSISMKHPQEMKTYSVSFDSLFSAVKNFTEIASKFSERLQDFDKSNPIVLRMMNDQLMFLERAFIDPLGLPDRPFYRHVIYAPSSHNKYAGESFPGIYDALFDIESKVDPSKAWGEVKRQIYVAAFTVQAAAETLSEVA

Consider `NC(=O)[C@H](CCCCNC(=S)Nc1ccc(CC2CN(CC(=O)O)CCN(CC(=O)O)CCN2CC(=O)O)cc1)NC(=O)[C@H](Cc1ccc(O)cc1)NC(=O)[C@H](CCC(=O)O)NC(=O)[C@H](CCC(=O)O)NC(=O)[C@H](CCC(=O)O)NC(=O)CCCCCNC(=O)CC[C@H](NC(=O)N[C@@H](CCC(=O)O)C(=O)O)C(=O)O` (single isomer, unassigned) [Compound 5, E′E-Ahx-EEEYK(Bn-NOTA)-NH2], for which the “affinity for PSMA, comparison in words” value in data set [1] is “same affinity for PSMA as compound 4”.
With `NC(=O)[C@H](CCCCNC(=S)Nc1ccc(CC2CN(CC(=O)O)CCN(CC(=O)O)CCN2CC(=O)O)cc1)NC(=O)[C@H](Cc1ccc(O)cc1)NC(=O)[C@H](CCC(=O)O)NC(=O)[C@H](CCC(=O)O)NC(=O)[C@H](CCC(=O)O)NC(=O)CCCCCNC(=O)CC[C@H](NC(=O)N[C@@H](CCC(=O)O)C(=O)O)C(=O)O` (single isomer, unassigned) [[Al^18F]5], in data set [2] (setting [6]), the tissue uptake at 1 h was approximately 0.18 %ID/g and the tissue uptake at 2 h was found to be 0.04 %ID/g. In addition, in data set [2] (bone, read-out: Biodistribution: Bone), the tissue uptake at 2 h came out at 0.1 %ID/g. For the same compound, in data set [2] (setting [7]), the tissue uptake at 1 h is approximately 0.4 %ID/g and the tissue uptake at 2 h was 0.17 %ID/g. Also, in data set [2] (muscle, read-out: Biodistribution: Muscle), the tissue uptake at 2 h stood at 0.01 %ID/g. Also, in data set [2] (tumor (PC3-PIP), n = 6, preliminary, read-out: Biodistribution: Tumor (PC3PIP)), the tissue uptake at 2 h came to 4.6 %ID/g. Moreover, in data set [3] (1 hour), the “Biodistribution: Blood” value is recorded as 0.18% ± 0.09%, the “Biodistribution: Bone” value was 0.39% ± 0.28%, the “Biodistribution: Heart” value is recorded as 0.14% ± 0.11% and the “Biodistribution: Kidney” value is 16.82% ± 5.60%. In addition, in data set [3] (1 hour), the “Biodistribution: Liver” value is 0.41% ± 0.10%, the “Biodistribution: Lung” value was 0.21% ± 0.05%, the “Biodistribution: Muscle” value is 0.19% ± 0.12% and the “Biodistribution: Small Intestine” value was 0.43% ± 0.51%. In data set [3] (1 hour), the “Biodistribution: Spleen” value is listed as 0.29% ± 0.14%, the “Biodistribution: Stomach” value is recorded as 0.10% ± 0.03% and the “Biodistribution: Thyroid” value is on record as 0.11% ± 0.02%. The “Biodistribution: Tumor (PC3PIP)” value in data set [3] (1 hour, n = 4) was 6.91% ± 1.44%. For the same compound, in data set [3] (2 hour), the “Biodistribution: Heart” value is listed as 0.04% ± 0.01%, the “Biodistribution: Kidney” value was 5.96% ± 2.17%, the “Biodistribution: Lung” value is 0.07% ± 0.04% and the “Biodistribution: Small Intestine” value was 0.18% ± 0.02%. Besides, in data set [3] (2 hour), the “Biodistribution: Spleen” value is given as 0.10% ± 0.04%, the “Biodistribution: Stomach” value was 0.03% ± 0.02%, the “Biodistribution: Thyroid” value is listed as 0.05% ± 0.00% and the “Tumor:blood” value was found to be 115. Also, in data set [3] (2 hour), the “Tumor:bone” value amounted to 46, the “Tumor:liver” value is reported as 27, the “Tumor:muscle” value was 458 and the “Tumor:spleen” value came to 46. Besides, the “Biodistribution: Tumor (PC3PIP)” value in data set [3] (2 hour, n = 6) was 4.58% ± 0.55%. Moreover, in data set [3] (mouse, in vivo), the “dissociation of ^18F-fluoride from the complex (from bone uptake)” value was “no significant dissociation of ^18F-fluoride from the complex” and the excretion in words result is given as “very fast renal excretion”.
One may read the pIC50 as the negative decadic logarithm of the IC50, by convention in mol/L. Regarding `O=C(O)CC[C@H](NC(=O)N[C@@H](CSC1CC(=O)N(CC2CCC(C(=O)NCCCCCC(=O)N[C@H](CCC(=O)O)C(=O)N[C@H](CCC(=O)O)C(=O)N[C@H](CCC(=O)O)C(=O)NCC(=O)O)CC2)C1=O)C(=O)O)C(=O)O` (stereo partly drawn) [Compound 1, ZJ-MCC-Ahx-dEdEdEG], the “affinity for PSMA, comparison in words” value in data set [1] is listed as “affinity comparable to the parent urea ligand; also recorded: Neither compound came close to matching the affinity of RBI-1033”. Moreover, the pIC50 in data set [1] (LNCaP or PC3-PIP cells, 12 nM [^3H] ligand, 1 hour at 37° C., 95% confidence intervals in parentheses) was 8.66.
As for `O=C(O)CC[C@H](NC(=O)N[C@@H](CSC1CC(=O)N(CC2CCC(C(=O)NCCCCCC(=O)N[C@@H](Cc3ccc(O)cc3)C(=O)N[C@@H](Cc3ccc(O)cc3)C(=O)N[C@@H](Cc3ccc(O)cc3)C(=O)NCC(=O)O)CC2)C1=O)C(=O)O)C(=O)O` (stereo partly drawn) [Compound 2, ZJ-MCC-Ahx-YYYG], the “affinity for PSMA, comparison in words” value in data set [1] is “affinity comparable to the parent urea ligand; also recorded: Neither compound came close to matching the affinity of RBI-1033”.
In the case of `NC(=O)[C@H](CS)NC(=O)CNC(=O)CNC(=O)CNC(=O)[C@H](Cc1ccc(O)cc1)NC(=O)CNC(=O)[C@@H](CCC(=O)O)NC(=O)[C@@H](CCC(=O)O)NC(=O)[C@@H](CCC(=O)O)NC(=O)CCCCCNC(=O)C1CCC(CNC(=O)CC[C@H](NC(=O)N[C@@H](CCC(=O)O)C(=O)O)C(=O)O)CC1` (stereo partly drawn) [Compound 3, E′E-Amc-Ahx-dEdEdEGYGGGC-NH2] ({Glu-CO-γGlu}-[X1][Ahx][dE][dE][dE]GYGGGC-NH2), the “affinity for PSMA, comparison in words” value in data set [1] is given as “equivalent to compound 1”.
For the compound `O=C([O-])CN(CCN(CC(=O)[O-])Cc1cc(CCC(=O)NCCCCCC(=O)NCCCC[C@H](NC(=O)N[C@@H](CCC(=O)O)C(=O)O)C(=O)O)ccc1[O-])Cc1cc(CCC(=O)O)ccc1[O-].[68Ga+3].[OH3+]` [Glu-NH—CO—NHLys(Ahx)-[^68Ga(HBED-CC)]], the “(per patient) lesion detection rate” value is 60% in data set [4] (at PSA <2.2 ng/ml) and 100% in data set [4] (at PSA >2.2 ng/ml). Moreover, the “non-PSMA related background in humans, in words” value (from here on “non-PSMA related background”) in data set [4] is “significant uptake in salivary glands, lacrimal glands, and liver”.
As to `O=C(O)CC[C@H](NC(=O)N[C@@H](CSCc1ccc([18F])cc1)C(=O)O)C(=O)O` [^18F-DCFBC], in data set [4], the “lesion detection in humans, in words” value is “detected lymph node and bone metastases at 2 hr post injection”; the “non-PSMA related background” value is “elevated liver background and unexpected blood pool retention”. In data set [5], the Blood pool activity was 0.4 % ID/g and the liver background is given as 2.1 % ID/g.
On to `O=C(O)CC[C@H](NC(=O)N[C@@H](CCCCNC(=O)c1ccc([18F])nc1)C(=O)O)C(=O)O` [^18F-DCFPyL], for which, in data set [5], the Blood pool activity is on record as 0.4 % ID/g and the liver background is 2.1 % ID/g.
For `O=C(O)CC[C@H](NC(=O)N[C@@H](CCCCNCc1ccc([123I])cc1)C(=O)O)C(=O)O` [^123I-MIP-1072], in data set [4], the “lesion detection in humans, in words” value is “detection of soft tissue and bone metastases, as well as tumors in the prostate bed”; the “non-PSMA related background” value was “significant uptake in salivary glands, lacrimal glands, and liver”. Moreover, in data set [5], the Blood pool activity is recorded as 0.21 % ID/g and the liver background was 2.17 % ID/g.
For the compound `O=C(O)CC[C@H](NC(=O)N[C@@H](CCCCNC(=O)Nc1ccc([123I])cc1)C(=O)O)C(=O)O` [^123I-MIP-1095], in data set [4], the “lesion detection in humans, in words” value is “detection of soft tissue and bone metastases, as well as tumors in the prostate bed”; the “non-PSMA related background” value is “significant uptake in salivary glands, lacrimal glands, and liver”.
